Experimental data reported in paper PMC10746543, “Design principles for cyclin K molecular glue degraders” (Nature Chemical Biology, 2023).
Several values for one entry are separate records, joined by “and”; a condition that tells them apart may be missing. Identical values can stand only once. Like-named read-outs stand apart in the source and are kept apart here.

What was measured:
CDK12–cyclin K and DDB1 = biological target: T1, CDK12–cyclin K and DDB1 (Homo sapiens, UniProt Q16531+Q9NYV4, K965R); experiment: TR-FRET ternary complex formation assay (compound titration); format: binding; conditions: for TR-FRET signal at compound concentration: replicate titrations; for fold lower affinity than DS11: TR-FRET complex formation
T1 construct: His6–CDK12 (a.a. 713–1,052); full-length or beta-propeller B domain deletion (ΔBPB: a.a. 396–705 deleted) constructs of His6–DDB1ΔBPB, StrepII–Avi–DDB1, or His6–Spy–DDB1; made in house; host or cells: Trichoplusia ni High Five insect cells (baculovirus)
T1 sequence (Q9NYV4 713-1052 K965R): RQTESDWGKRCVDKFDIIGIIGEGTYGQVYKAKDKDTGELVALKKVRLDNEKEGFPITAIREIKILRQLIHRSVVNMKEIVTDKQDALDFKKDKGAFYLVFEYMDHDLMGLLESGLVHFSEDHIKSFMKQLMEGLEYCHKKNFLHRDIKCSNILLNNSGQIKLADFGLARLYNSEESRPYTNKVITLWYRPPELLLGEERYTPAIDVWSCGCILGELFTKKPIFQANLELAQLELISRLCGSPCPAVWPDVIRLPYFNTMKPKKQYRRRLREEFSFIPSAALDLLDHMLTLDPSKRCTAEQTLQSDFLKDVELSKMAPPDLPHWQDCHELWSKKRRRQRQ
T1 sequence (O75909 1-267 partner): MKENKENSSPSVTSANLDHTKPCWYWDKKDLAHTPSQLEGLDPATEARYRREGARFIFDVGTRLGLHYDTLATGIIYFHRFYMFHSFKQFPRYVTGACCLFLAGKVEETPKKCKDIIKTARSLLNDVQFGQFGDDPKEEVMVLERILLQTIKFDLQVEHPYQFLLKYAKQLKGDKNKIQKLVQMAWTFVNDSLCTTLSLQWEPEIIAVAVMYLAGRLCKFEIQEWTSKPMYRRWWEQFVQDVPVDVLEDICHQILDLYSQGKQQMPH
T1 sequence (Q16531 whole entry): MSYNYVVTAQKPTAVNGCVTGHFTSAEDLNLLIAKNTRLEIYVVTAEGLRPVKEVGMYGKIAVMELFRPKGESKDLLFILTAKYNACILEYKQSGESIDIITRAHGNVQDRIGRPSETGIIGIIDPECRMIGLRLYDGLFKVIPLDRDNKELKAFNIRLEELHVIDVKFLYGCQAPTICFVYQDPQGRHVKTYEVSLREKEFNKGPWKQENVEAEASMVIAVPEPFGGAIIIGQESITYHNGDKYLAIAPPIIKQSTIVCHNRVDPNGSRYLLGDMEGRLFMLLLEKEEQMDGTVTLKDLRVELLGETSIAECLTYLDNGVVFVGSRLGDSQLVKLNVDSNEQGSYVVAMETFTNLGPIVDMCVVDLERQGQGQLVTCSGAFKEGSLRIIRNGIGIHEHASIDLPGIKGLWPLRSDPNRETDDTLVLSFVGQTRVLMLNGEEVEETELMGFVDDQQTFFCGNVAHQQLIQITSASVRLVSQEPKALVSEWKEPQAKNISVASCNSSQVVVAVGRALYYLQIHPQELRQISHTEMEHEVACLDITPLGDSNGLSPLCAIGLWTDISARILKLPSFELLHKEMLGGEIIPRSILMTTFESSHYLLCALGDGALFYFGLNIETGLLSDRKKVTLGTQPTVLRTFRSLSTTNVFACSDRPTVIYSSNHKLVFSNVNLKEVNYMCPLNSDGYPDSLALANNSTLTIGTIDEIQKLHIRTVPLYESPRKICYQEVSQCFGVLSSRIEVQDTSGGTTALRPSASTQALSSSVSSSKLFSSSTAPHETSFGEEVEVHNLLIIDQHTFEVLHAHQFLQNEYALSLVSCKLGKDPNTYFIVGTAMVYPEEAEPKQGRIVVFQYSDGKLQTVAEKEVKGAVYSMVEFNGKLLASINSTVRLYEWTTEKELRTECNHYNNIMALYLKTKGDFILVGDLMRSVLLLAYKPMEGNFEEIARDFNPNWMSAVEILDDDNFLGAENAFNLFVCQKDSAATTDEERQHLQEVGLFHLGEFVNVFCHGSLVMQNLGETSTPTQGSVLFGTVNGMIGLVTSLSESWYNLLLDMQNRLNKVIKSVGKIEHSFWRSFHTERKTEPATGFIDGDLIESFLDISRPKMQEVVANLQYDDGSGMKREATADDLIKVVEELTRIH
Outline: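 A time delay of 70 μs preceded acquisition, limiting background fluorescence; the ratio of emission at 520 versus 490 nm gave the TR-FRET value.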

[1] = tested on: cyclin K–eGFP degradation reporter; experiment: Cyclin K reporter stability analysis (dual-color cyclin K–eGFP reporter); format: cell-based, human
Outline: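 First, reporter-bearing HEK293T–Cas9 cells are plated at 1 × 10^6 ml^−1. Next, drug or vehicle is added for 5 h. Finally, geometric-mean eGFP and mCherry signals of round, mCherry-positive cells are measured cytometrically, and their ratio is referenced to the DMSO average.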

HEK293T cells = experiment: Drug sensitivity assay (CellTiter-Glo viability) with or without MLN4924 pretreatment; format: cell-based, human; conditions: for EC50: Homo sapiens, HEK-293T, HEK293T viability, 72 h, compound alone, read-out: Cellular assays EC50; for EC50 / Toxicity rescue: Supplementary Table 2; for Toxicity rescue: MLN4924-mediated cytotoxicity rescue, 10 µM used where n.d.
Outline: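 Cas9-expressing HEK293T cells receive either vehicle or 100 nM MLN4924, then compounds 2 h afterwards. After three days, luminescence-based viability is measured and calculated relative to DMSO.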

[2] = in vitro complex formation, 50 nM CDK12–cyclin K, 100 nM DDB1, text and figures, read-out: TR-FRET EC50
[3] = sheet MOESM7, read-out: log TR-FRET EC50 (converted)
[4] = compound concentration 79.2001 nM
[5] = compound concentration 158.4 nM
[6] = compound concentration 309.6 nM
[7] = compound concentration 626.401 nM
[8] = compound concentration 1252.8 nM
[9] = compound concentration 9936.01 nM
[10] = compound concentration 20016 nM
[11] = Supplementary Table 2, HEK293T cycK-eGFP reporter, 5 h, read-out: Cellular assays DC50
[12] = Supplementary Table 2, read-out: TR-FRET EC50 TR-FRET

| SMILES | EC50 (CDK12–cyclin K and DDB1; [2]) [µM] | EC50 (CDK12–cyclin K and DDB1; [3]) [µM] | EC50 (HEK293T cells) [µM] | Toxicity rescue (HEK293T cells) [%] | TR-FRET signal at compound concentration (CDK12–cyclin K and DDB1; compound concentration 4.68 nM) | TR-FRET signal at compound concentration (CDK12–cyclin K and DDB1; compound concentration 21.6 nM) | TR-FRET signal at compound concentration (CDK12–cyclin K and DDB1; compound concentration 36 nM) | DC50 [1, 11] [µM] | EC50 (CDK12–cyclin K and DDB1; [12]) [µM] | TR-FRET signal, individual replicate (CDK12–cyclin K and DDB1; compound concentration 4.68 nM) | TR-FRET signal, individual replicate (CDK12–cyclin K and DDB1; compound concentration 21.6 nM) | TR-FRET signal, individual replicate (CDK12–cyclin K and DDB1; compound concentration 36 nM) | TR-FRET signal, individual replicate (CDK12–cyclin K and DDB1; [4]) | TR-FRET signal, individual replicate (CDK12–cyclin K and DDB1; [5]) | TR-FRET signal, individual replicate (CDK12–cyclin K and DDB1; [6]) | TR-FRET signal, individual replicate (CDK12–cyclin K and DDB1; [7]) | TR-FRET signal, individual replicate (CDK12–cyclin K and DDB1; [8]) | TR-FRET signal, individual replicate (CDK12–cyclin K and DDB1; compound concentration 2448 nM) | TR-FRET signal, individual replicate (CDK12–cyclin K and DDB1; [9]) | TR-FRET signal, individual replicate (CDK12–cyclin K and DDB1; [10]) | also measured |
| --- | --- | --- | --- | --- | --- | --- | --- | --- | --- | --- | --- | --- | --- | --- | --- | --- | --- | --- | --- | --- | --- |
| CC[C@H](CO)Nc1nc(NCCCc2cccc(F)c2)c2ncn(C(C)C)c2n1 [DS29] | 0.046 ± 0.002 | 0.0457 | 0.452 | 713 |  |  |  |  |  |  |  |  |  |  |  |  |  |  |  |  | TR-FRET signal at compound concentration (CDK12–cyclin K and DDB1; compound concentration 0.468 nM): 0.256 and 0.2516; TR-FRET signal at compound concentration (CDK12–cyclin K and DDB1; compound concentration 2.16 nM): 0.3133 and 0.3182; TR-FRET signal at compound concentration (CDK12–cyclin K and DDB1; compound concentration 3.6 nM): 0.4047 and 0.4311; TR-FRET signal at compound concentration (CDK12–cyclin K and DDB1; compound concentration 7.92001 nM): 0.6615 and 0.6381; TR-FRET signal at compound concentration (CDK12–cyclin K and DDB1; compound concentration 15.84 nM): 1.045 and 0.9914; TR-FRET signal at compound concentration (CDK12–cyclin K and DDB1; compound concentration 30.96 nM): 1.635 and 1.536; TR-FRET signal at compound concentration (CDK12–cyclin K and DDB1; compound concentration 62.6401 nM): 2.287 and 2.228; TR-FRET signal at compound concentration (CDK12–cyclin K and DDB1; compound concentration 125.28 nM): 2.838 and 2.826; TR-FRET signal at compound concentration (CDK12–cyclin K and DDB1; compound concentration 244.8 nM): 3.127 and 3.261; TR-FRET signal at compound concentration (CDK12–cyclin K and DDB1; compound concentration 993.601 nM): 3.39 and 3.672; TR-FRET signal at compound concentration (CDK12–cyclin K and DDB1; compound concentration 2001.6 nM): 3.566 and 3.699; EC50 (CDK12–cyclin K and DDB1; source data sheet correlations, read-out: TR-FRET EC50): 0.0457 µM; DC50 ([1]; source data sheet correlations, read-out: DC50): 0.253 µM; % MLN4924 rescue (HEK293T cells; PCA input): 669% |
| CC[C@H](CO)Nc1nc(NCCc2ccccc2)c2ncn(C(C)C)c2n1 [DS31] | 1.23 ± 0.134 |  | > 10 | 0 | 0.211 and 0.2282 | 0.2112 and 0.2225 | 0.2194 and 0.2418 | > 10 |  |  |  |  |  |  |  |  |  |  |  |  | fold lower affinity than DS11 (CDK12–cyclin K and DDB1): 12-22 fold; TR-FRET signal at compound concentration (CDK12–cyclin K and DDB1; [4]): 0.2283 and 0.2565; TR-FRET signal at compound concentration (CDK12–cyclin K and DDB1; [5]): 0.2533 and 0.2816; TR-FRET signal at compound concentration (CDK12–cyclin K and DDB1; [6]): 0.2963 and 0.3231; TR-FRET signal at compound concentration (CDK12–cyclin K and DDB1; [7]): 0.3477 and 0.3849; TR-FRET signal at compound concentration (CDK12–cyclin K and DDB1; [8]): 0.4331 and 0.4555; TR-FRET signal at compound concentration (CDK12–cyclin K and DDB1; compound concentration 2448 nM): 0.5457 and 0.5736; TR-FRET signal at compound concentration (CDK12–cyclin K and DDB1; [9]): 0.6887 and 0.7282; TR-FRET signal at compound concentration (CDK12–cyclin K and DDB1; [10]): 0.6557 and 0.645 |
| CC[C@H](CO)Nc1nc(NCCCC2CCCCC2)c2ncn(C(C)C)c2n1 [DS32] |  | 0.676 | > 10 | 0 |  |  |  | > 10 | 0.676 | 0.2147 and 0.2508 | 0.2391 and 0.2736 | 0.287 and 0.3299 | 0.3607 and 0.4271 | 0.4885 and 0.5801 | 0.7088 and 0.8235 | 1.016 and 1.206 | 1.37 and 1.584 | 1.698 and 1.9826 | 1.942 and 2.207 | 1.955 and 2.01 | fold lower affinity than DS11 (CDK12–cyclin K and DDB1): ten-fold |
| CC[C@H](CO)Nc1nc(NCCCC2CCCC2)c2ncn(C(C)C)c2n1 [DS33] |  | 1.27 | > 10 | 0 |  |  |  | > 10 | 1.27 | 0.2064 and 0.239 | 0.2251 and 0.2479 | 0.2332 and 0.272 | 0.2704 and 0.303 | 0.3276 and 0.3592 | 0.4277 and 0.464 | 0.5723 and 0.6562 | 0.7875 and 0.9047 | 1.007 and 1.15 | 1.305 and 1.477 | 1.367 and 1.47 |  |
| CC[C@H](CO)Nc1nc(NCCCc2ccco2)c2ncn(C(C)C)c2n1 [DS34] | 0.603 ± 0.062 | 0.603 | > 10 | 0 | 0.2091 and 0.2292 | 0.229 and 0.2555 | 0.2532 and 0.2765 | > 10 | 0.603 |  |  |  |  |  |  |  |  |  |  |  | TR-FRET signal at compound concentration (CDK12–cyclin K and DDB1; [4]): 0.311 and 0.3352; TR-FRET signal at compound concentration (CDK12–cyclin K and DDB1; [5]): 0.3881 and 0.4084; TR-FRET signal at compound concentration (CDK12–cyclin K and DDB1; [6]): 0.5012 and 0.4942; TR-FRET signal at compound concentration (CDK12–cyclin K and DDB1; [7]): 0.6373 and 0.6895; TR-FRET signal at compound concentration (CDK12–cyclin K and DDB1; [8]): 0.7887 and 0.8649; TR-FRET signal at compound concentration (CDK12–cyclin K and DDB1; compound concentration 2448 nM): 0.8803 and 0.974; TR-FRET signal at compound concentration (CDK12–cyclin K and DDB1; [9]): 1.0289 and 1.143; TR-FRET signal at compound concentration (CDK12–cyclin K and DDB1; [10]): 1.011 and 1.0565 |
| CC[C@H](CO)Nc1nc(NCCCc2ccnn2C)c2ncn(C(C)C)c2n1 [DS35] | 0.246 ± 0.01 | 0.246 | > 10 | 0 | 0.1529 and 0.1552 | 0.228 and 0.2468 | 0.3788 and 0.4108 | > 10 | 0.246 |  |  |  |  |  |  |  |  |  |  |  | TR-FRET signal at compound concentration (CDK12–cyclin K and DDB1; [4]): 0.6173 and 0.6444; TR-FRET signal at compound concentration (CDK12–cyclin K and DDB1; [5]): 0.9157 and 0.9758; TR-FRET signal at compound concentration (CDK12–cyclin K and DDB1; [6]): 1.283 and 1.333; TR-FRET signal at compound concentration (CDK12–cyclin K and DDB1; [7]): 1.6242 and 1.675; TR-FRET signal at compound concentration (CDK12–cyclin K and DDB1; [8]): 1.8781 and 1.924; TR-FRET signal at compound concentration (CDK12–cyclin K and DDB1; compound concentration 2448 nM): 2.069 and 2.096; TR-FRET signal at compound concentration (CDK12–cyclin K and DDB1; [9]): 2.24 and 2.273; TR-FRET signal at compound concentration (CDK12–cyclin K and DDB1; [10]): 2.144 and 2.245 |
| CCCCN(CCCC)CCCNc1nc(N[C@H](CC)CO)nc2c1ncn2C(C)C [DS36] |  |  | > 10 | 0 |  |  |  | > 10 |  | 0.2097 and 0.2275 | 0.2087 and 0.2297 | 0.2089 and 0.2353 | 0.2163 and 0.2368 | 0.2165 and 0.2428 | 0.2214 and 0.244 | 0.2373 and 0.2728 | 0.2487 and 0.3013 | 0.2879 and 0.3168 | 0.3262 and 0.358 | 0.3249 and 0.3501 |  |
| CC[C@H](CO)Nc1nc(NCCC2CC2)c2ncn(C(C)C)c2n1 [DS37] |  |  | > 10 | 0 |  |  |  | > 10 |  | 0.1908 and 0.2636 | 0.201 and 0.2304 | 0.2177 and 0.2395 | 0.2212 and 0.2472 | 0.2411 and 0.2679 | 0.2728 and 0.306 | 0.3075 and 0.349 | 0.3712 and 0.4097 | 0.4307 and 0.4643 | 0.5169 and 0.5543 | 0.5088 and 0.5368 |  |
| CC[C@H](CO)Nc1nc(NCCC2CCCCCCC2)c2ncn(C(C)C)c2n1 [DS38] |  | 5.74 | > 10 | 0 |  |  |  | > 10 | 5.74 | 0.1996 and 0.2467 | 0.2088 and 0.2442 | 0.2151 and 0.2401 | 0.2234 and 0.2572 | 0.237 and 0.2667 | 0.2597 and 0.2826 | 0.3077 and 0.3432 | 0.3992 and 0.4242 | 0.5328 and 0.5897 | 1.042 and 1.049 | 1.225 and 1.271 |  |
